Patent US20220386606A1, “SPECIFICALLY SUBSTITUTED 3-PHENYL-5-SPIROCYCLOPENTYL-3-PYRROLIN-2-ONES AND THEIR USE AS HERBICIDES” (Bayer Aktiengesellschaft, priority 2019, published 2022)

How the values were obtained:
ALOMY [1] = assay: Pre-emergence herbicidal action against ALOMY; type: in vivo, Alopecurus myosuroides; details: 320 g/ha, scored visually after 3 weeks vs untreated controls
Procedure, shortened: (§1)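 Scoring is visual, 3 weeks post-application, on a 0 to 100% scale relative to untreated controls (100% = plants died). Treatment is pre-emergence: aqueous suspensions or emulsions applied to the covering soil at 600 to 800 L/ha with 0.2% wetting agent.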

AVEFA [2] = assay: Pre-emergence herbicidal action against AVEFA; type: in vivo, Avena fatua; details: 320 g/ha, scored visually after 3 weeks vs untreated controls
Procedure, shortened: as §1

DIGSA [3] = assay: Pre-emergence herbicidal action against DIGSA; type: in vivo, Digitaria sanguinalis; details: 320 g/ha, scored visually after 3 weeks vs untreated controls
Procedure, shortened: as §1

ECHCG [4] = assay: Pre-emergence herbicidal action against ECHCG; type: in vivo, Echinochloa crus-galli; details: 320 g/ha, scored visually after 3 weeks vs untreated controls
Procedure, shortened: as §1

LOLRI [5] = assay: Pre-emergence herbicidal action against LOLRI (Table 8, titled post-emergence at 320 g/ha); type: in vivo, Lolium rigidum; details: table stands in the pre-emergence section
Procedure, shortened: as §1

SETVI [6] = assay: Pre-emergence herbicidal action against SETVI; type: in vivo, Setaria viridis; details: 320 g/ha, scored visually after 3 weeks vs untreated controls
Procedure, shortened: as §1

ABUTH [7] = assay: Pre-emergence herbicidal action against ABUTH; type: in vivo, Abutylon threophrasti; details: 320 g/ha
Procedure, shortened: as §1

AMARE [8] = assay: Pre-emergence herbicidal action against AMARE; type: in vivo, Amaranthus retroflexus; details: 320 g/ha
Procedure, shortened: as §1

POLCO = assay: Pre-emergence herbicidal action against POLCO; type: in vivo, Polygonum convolvulus; details: 320 g/ha
Procedure, shortened: as §1

VIOTR [9] = assay: Pre-emergence herbicidal action against VIOTR; type: in vivo, Viola tricolor; details: 320 g/ha
Procedure, shortened: as §1

VERPE [10] = assay: Pre-emergence herbicidal action against VERPE; type: in vivo, Veronica persica; details: 320 g/ha
Procedure, shortened: as §1

ALOMY [11] = assay: Post-emergence herbicidal action against ALOMY; type: in vivo, Alopecurus myosuroides; details: 80 g/ha, visual assessment after about 3 weeks
Procedure, shortened: (§2)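 Herbicidal action is rated visually in percent against untreated controls, where 100% means dead plants and 0% means no difference. Ratings come about 3 weeks after foliar spraying of one-leaf-stage plants with aqueous WP or EC preparations plus 0.2% wetting agent at 600 to 800 l/ha.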

AVEFA [12] = assay: Post-emergence herbicidal action against AVEFA; type: in vivo, Avena fatua; details: 80 g/ha, visual assessment after about 3 weeks
Procedure, shortened: as §2

DIGSA [13] = assay: Post-emergence herbicidal action against DIGSA; type: in vivo, Digitaria sanguinalis; details: 80 g/ha, visual assessment about 3 weeks after treatment vs untreated controls
Procedure, shortened: as §2

ECHCG [14] = assay: Post-emergence herbicidal action against ECHCG; type: in vivo, Echinochloa crus-galli; details: 80 g/ha, visual assessment about 3 weeks after treatment vs untreated controls
Procedure, shortened: as §2

LOLRI [15] = assay: Post-emergence herbicidal action against LOLRI; type: in vivo, Lolium rigidum; details: 80 g/ha, visual assessment about 3 weeks after treatment vs untreated controls
Procedure, shortened: as §2

SETVI [16] = assay: Post-emergence herbicidal action against SETVI; type: in vivo, Setaria viridis; details: 80 g/ha, visual assessment about 3 weeks after treatment vs untreated controls
Procedure, shortened: as §2

ABUTH [17] = assay: Post-emergence herbicidal action against ABUTH; type: in vivo, Abutylon threophrasti; details: 80 g/ha, visual assessment about 3 weeks after treatment vs untreated controls
Procedure, shortened: as §2

VERPE [18] = assay: Post-emergence herbicidal action against VERPE; type: in vivo, Veronica persica; details: 80 g/ha, visual assessment about 3 weeks after treatment vs untreated controls
Protocol: (§3) Seeds of monocotyledonous and dicotyledonous weed and crop plants are laid out in sandy loam soil in wood-fiber pots, covered with soil and cultivated in a greenhouse under good growth conditions. 2 to 3 weeks after sowing, the test plants are treated at the one-leaf stage. The compounds of the invention, formulated in the form of wettable powders (WP) or as emulsion concentrates (EC), are then sprayed onto the green parts of the plants as aqueous suspension or emulsion at a water application rate equating to 600 to 800 l/ha with addition of 0.2% wetting agent. After the test plants have been left to stand in the greenhouse under optimal growth conditions for about 3 weeks, the action of the preparations is assessed visually in comparison to untreated controls (herbicidal action in percent (%): 100% activity=the plants have died, 0% activity=like control plants).

VIOTR [19] = assay: Post-emergence herbicidal action against VIOTR; type: in vivo, Viola tricolor; details: 80 g/ha, visual assessment about 3 weeks after treatment vs untreated controls
Protocol: as §3

AMARE [20] = assay: Post-emergence herbicidal action against AMARE; type: in vivo, Amaranthus retroflexus; details: 80 g/ha, visual assessment about 3 weeks after treatment vs untreated controls
Protocol: as §3

MATIN = assay: Pre-emergence herbicidal action against MATIN; type: in vivo; details: 320 g/ha
Procedure, shortened: as §1

SMILES	Pre-emergence action against ALOMY in % (ALOMY [1])	Pre-emergence action against AVEFA in % (AVEFA [2])	Pre-emergence action against DIGSA in % (DIGSA [3])	Pre-emergence action against ECHCG in % (ECHCG [4])	Pre-emergence herbicidal action against LOLRI in % (LOLRI [5])	Pre-emergence action against SETVI in % (SETVI [6])	Pre-emergence action against ABUTH in % (ABUTH [7])	Pre-emergence action against AMARE in % (AMARE [8])	Pre-emergence action against POLCO in % (POLCO)	Pre-emergence action against VIOTR in % (VIOTR [9])	Pre-emergence action against VERPE in % (VERPE [10])	Post-emergence action against ALOMY in % (ALOMY [11])	Post-emergence action against AVEFA in % (AVEFA [12])	Post-emergence action against DIGSA in % (DIGSA [13])	Post-emergence action against ECHCG in % (ECHCG [14])	Post-emergence action against LOLRI in % (LOLRI [15])	Post-emergence action against SETVI in % (SETVI [16])	Post-emergence action against ABUTH in % (ABUTH [17])	Post-emergence action against VERPE in % (VERPE [18])	Post-emergence action against AMARE in % (AMARE [20])	also measured
CC#Cc1cc(C)c(C2=C(OC(=O)OCC)C3(CCC(COC)C3)NC2=O)c(Br)c1 (stereo not drawn) [Example P-30]	100%	100%	100%	100%	100%	100%	80%	100%	80%	100%	80%	100%	90%	100%	100%	100%	100%	80%	80%	–	–
CC#Cc1cc(C)c(C2=C(O)C3(CCC(COCC)C3)NC2=O)c(OC)c1 (stereo not drawn) [Example I-32]	100%	90%	100%	100%	100%	100%	–	–	–	100%	–	100%	100%	100%	100%	100%	–	80%	80%	–	Post-emergence action against VIOTR in % (VIOTR [19]): 80%
CC#Cc1cc(C)c(C2=C(OC(=O)OCC)C3(CCC(COC)C3)NC2=O)c(F)c1 (stereo not drawn) [Example P-52]	100%	90%	100%	100%	100%	100%	–	80%	80%	90%	–	100%	90%	100%	100%	100%	–	80%	80%	80%	–
CC#Cc1cc(C)c(C2=C(O)C3(CCC(COCC)C3)NC2=O)c(Cl)c1 (stereo not drawn) [Example I-02]	100%	100%	100%	100%	100%	100%	100%	100%	100%	100%	90%	100%	90%	90%	100%	100%	100%	80%	90%	80%	Pre-emergence action against MATIN in % (MATIN): 90%
